A word on the IC50: it is the point on the concentration scale where inhibition reaches its midpoint.

In experiment [1] the test system is HCT116 MTAP null cells. The experiment in a line: HCT116 MTAP null cell line proliferation / cell viability (CellTiter-Glo, 6 days). The experiment is classed as cell-based. Conditions: 144 h; HCT116 MTAP null cells, 6 days treatment, CellTiter-Glo cell viability; read-out: HCT-116 MTAP null IC50. The method in brief: (§1)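 Viability read by CellTiter-Glo luminescence after 6 days of compound treatment of HCT116 WT and MTAP-null cells (RPMI 1640, 10% FBS). Dose series were 1:3 steps from 1 or 10 μM (8–9 points), or 1:2 steps from 10 or 50 μM (22 points). IC50 from 4-parameter logistic or fixed-slope sigmoidal fit.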
On the technique in general: Cellular ATP, detected with luciferase, serves as a proxy for viable cell number.

In experiment [2] the test system is HCT116 WT cells. Put plainly: HCT116 WT (parent) cell line proliferation / cell viability (CellTiter-Glo, 6 days). Format: cell-based. The settings on record: Homo sapiens, HCT-116, 144 h, 6 days treatment. The method in brief:
as §1

SMILES strings stand for the structures.

Turning to `COc1ccc2c(c1)COC[C@@H]2N(C)C(=O)c1cc2c(cn1)nc(N)c1cnn(C)c12` (single isomer, unassigned) [Example 421], the IC50 in experiment [1] was determined as 792 nM; in experiment [2], 35200 nM.
As to `CN(C(=O)c1cc2c(cn1)nc(N)c1cnn(C)c12)[C@@H]1COCc2c1ccc(C(F)(F)F)c2F` (single isomer, unassigned) [Example 422], the IC50 in experiment [1] is 10 nM; in experiment [2], 241 nM.
In the case of `CN(C(=O)c1cc2c(cc1F)nc(N)c1cnn(C)c12)[C@@H]1COCc2ncccc21` (single isomer, unassigned) [Example 423], the IC50 in experiment [1] came out at 39 nM; in experiment [2], 1610 nM.
As for `CN(C(=O)c1cc2c(cc1F)nc(N)c1cnn(C)c12)[C@H]1COCc2ncccc21` (single isomer, unassigned) [Example 424], the results for the IC50 in experiment [1] and in experiment [2] were 593 nM and 18600 nM, respectively.
The matching figures for `CN(C(=O)c1cc2c(cc1F)nc(N)c1cnn(C)c12)[C@@H]1COCc2c(F)cncc21` (single isomer, unassigned) [Example 425]: 158 nM and 13400 nM.
As to `CN(C(=O)c1cc2c(cc1F)nc(N)c1cnn(C)c12)[C@H]1COCc2c(F)cncc21` (single isomer, unassigned) [Example 426], the IC50 was found to be 355 nM in experiment [1] and 27900 nM in experiment [2].
Taken in the same sequence, the figures for `COc1ccc2c(c1)COC[C@H]2N(C)C(=O)c1cc2c(cc1F)nc(N)c1cnn(C)c12` (single isomer, unassigned) [Example 427] were 8 nM and 247 nM.
The matching figures for `COc1ccc2c(c1)COC[C@@H]2N(C)C(=O)c1cc2c(cc1F)nc(N)c1cnn(C)c12` (single isomer, unassigned) [Example 428]: 275 nM and 8340 nM.
Taken in the same sequence, the figures for `CN(C(=O)c1cc2c(cc1F)nc(N)c1cnn(C)c12)[C@@H]1CCCc2nc(C(F)(F)F)ccc21` (single isomer, unassigned) [Example 429] were 49 nM and 2350 nM.
Consider `CN(C(=O)c1cc2c(cc1F)nc(N)c1cnn(C)c12)[C@@H]1COCc2cc(OC(F)(F)F)ccc21` (single isomer, unassigned) [Example 430], for which the figures for the IC50 in experiment [1] and in experiment [2] were 3 nM and 75 nM, respectively.
The matching figures for `CN(C(=O)c1cc2c(cc1F)nc(N)c1cnn(C)c12)[C@H]1COCc2cc(OC(F)(F)F)ccc21` (single isomer, unassigned) [Example 431]: 305 nM and 5880 nM.
In the case of `CN(C(=O)c1cc2c(cc1F)nc(N)c1cnn(C)c12)[C@@H]1COCc2c1ccc(C(F)(F)F)c2F` (single isomer, unassigned) [Example 432], the concentration for half-maximal inhibition (IC50) turned out to be 9 nM in experiment [1] and 127 nM in experiment [2].
The matching figures for `CN(C(=O)c1cc2c(cc1F)nc(N)c1cnn(C)c12)[C@H]1COCc2c1ccc(C(F)(F)F)c2F` (single isomer, unassigned) [Example 433]: 418 nM and 3280 nM.
For `CN(C(=O)c1cc2c(cc1F)nc(N)c1cnn(C)c12)[C@@H]1CC(C)(C)Cc2nc(C(F)(F)F)ccc21` (single isomer, unassigned) [Example 434], the IC50 in experiment [1] is 223 nM; in experiment [2], 11500 nM.
The matching figures for `CN(C(=O)c1cc2c(cc1F)nc(N)c1cnn(C)c12)[C@H]1CC(C)(C)Cc2nc(C(F)(F)F)ccc21` (single isomer, unassigned) [Example 435]: 320 nM and 13400 nM.
Taken in the same sequence, the figures for `Cc1cc2nc(N)c3cnn(C)c3c2cc1C(=O)N(C)[C@@H]1COCc2c1ccc(C(F)(F)F)c2F` (single isomer, unassigned) [Example 436] were 2 nM and 23 nM.
In the case of `Cc1cc2nc(N)c3cnn(C)c3c2cc1C(=O)N(C)[C@H]1COCc2c1ccc(C(F)(F)F)c2F` (single isomer, unassigned) [Example 437], the IC50 in experiment [1] was 41 nM; in experiment [2], 687 nM.
Taken in the same sequence, the figures for `CCOc1ccc2c(n1)COC[C@H]2N(C)C(=O)c1ccc2nc(N)c3c(cnn3C)c2c1` (single isomer, unassigned) [Example 438] were 193 nM and 25200 nM.
Consider `CN(C(=O)c1cc2c(cc1F)nc(N)c1c2cnn1C)[C@@H]1CCCc2nc(C(F)(F)F)ccc21` (single isomer, unassigned) [Example 439], for which the results for the IC50 in experiment [1] and in experiment [2] were 192 nM and 9460 nM, respectively.
The matching figures for `CN(C(=O)c1cc2c(cc1F)nc(N)c1c2cnn1C)[C@@H]1COCc2c1ccc(C(F)(F)F)c2F` (single isomer, unassigned) [Example 440]: 48 nM and 3010 nM.
Taken in the same sequence, the figures for `CN(C(=O)c1ccc2nc(N)c3cnn(C)c3c2c1)[C@@H]1CCOCc2nc(C(F)(F)F)ccc21` (single isomer, unassigned) [Example 441] were 181 nM and 9310 nM.
`CN(C(=O)c1cc2c3c(c(N)nc2cn1)COC3)[C@@H]1COc2cc(C(F)(F)F)ccc21` (single isomer, unassigned) [Example 522]: the values for the IC50 in experiment [1] and in experiment [2] were 63 nM and 2470 nM, respectively.
Taken in the same sequence, the figures for `CN(C(=O)c1cc2c3c(c(N)nc2cn1)COC3)[C@H]1COc2cc(C(F)(F)F)ccc21` (single isomer, unassigned) [Example 523] were 2720 nM and 10000 nM.
Taken in the same sequence, the figures for `COc1ccc2c(n1)OC[C@H]2N(C)C(=O)c1ccc2nc(N)c3c(c2c1)COC3` (single isomer, unassigned) [Example 524] were 396 nM and 24500 nM.
Taken in the same sequence, the figures for `COc1ccc2c(n1)OC[C@@H]2N(C)C(=O)c1ccc2nc(N)c3c(c2c1)COC3` (single isomer, unassigned) [Example 525] were 4160 nM and 50000 nM.
On to `CN(C(=O)c1ccc2nc(N)c3c(c2c1)COC3)[C@@H]1COc2cc(OC(F)F)ccc21` (single isomer, unassigned) [Example 526], for which the figures for the IC50 in experiment [1] and in experiment [2] were 52 nM and 3820 nM, respectively.
Taken in the same sequence, the figures for `CN(C(=O)c1ccc2nc(N)c3c(c2c1)COC3)[C@@H]1CCc2nc(C(F)(F)F)ccc21` (single isomer, unassigned) [Example 527] were 143 nM and 7520 nM.
On to `CN(C(=O)c1ccc2nc(N)c3c(c2c1)COC3)[C@H]1CCc2nc(C(F)(F)F)ccc21` (single isomer, unassigned) [Example 528], for which the IC50 in experiment [1] was found to be 5280 nM; in experiment [2], 50000 nM.
On to `CN(C(=O)c1ccc2nc(N)c3c(c2c1)COC3)C1COc2nc(C(F)(F)F)ccc21` (single isomer, unassigned) [Example 529], for which the results for the IC50 in experiment [1] and in experiment [2] were 89 nM and 5590 nM, respectively.
Taken in the same sequence, the figures for `CN(C(=O)c1ccc2nc(N)c3c(c2c1)COC3)[C@H]1COc2nc(C(F)(F)F)ccc21` (single isomer, unassigned) [Example 530] were 2510 nM and 40200 nM.
In the case of `CN(C(=O)c1ccc2nc(N)c3c(c2c1)COC3)[C@@H]1CCc2cc(OC(F)(F)F)ccc21` (single isomer, unassigned) [Example 531], the IC50 in experiment [1] came out at 113 nM; in experiment [2], 4860 nM.
For `CN(C(=O)c1ccc2nc(N)c3c(c2c1)COC3)[C@H]1CCc2cc(OC(F)(F)F)ccc21` (single isomer, unassigned) [Example 532], the IC50 in experiment [1] was found to be 2510 nM; in experiment [2] it was 6680 nM.
